# Measured values taken from PubChem BioAssay AID192 (DTP/NCI, 2004).
# Toxic doses and inconclusive results are not listed.
# System: BDF1 mice, B16 melanoma ip, median survival T/C
# Test: NCI In Vivo Anticancer Drug Screen. Data for tumor model B16 Melanoma (intraperitoneal) in B6D2F1 (BDF1) mice
# Conditions: endpoint: median survival time, higher = longer survival
# How it was run: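 The ratio T/C compares compound-treated mice with vehicle-treated controls, using survival or tumor size as the endpoint in a transplantable tumor model.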
# [1] = dose: 3.13 mg/kg/injection, schedule: Q01DX009 (ip), vehicle: saline with Tween-80
# [2] = dose: 6.25 mg/kg/injection, schedule: Q01DX009 (ip), vehicle: saline with Tween-80
# [3] = dose: 25.0 mg/kg/injection, schedule: Q01DX009 (ip), vehicle: Klucel (hydroxypropylcellulose) (HPC)
# [4] = dose: 100.0 mg/kg/injection, schedule: Q01DX009 (ip), vehicle: Klucel (hydroxypropylcellulose) (HPC)
# [5] = dose: 12.5 mg/kg/injection, schedule: Q01DX009 (ip), vehicle: Klucel (hydroxypropylcellulose) (HPC)
# [6] = dose: 200.0 mg/kg/injection, schedule: Q01DX009 (ip), vehicle: Klucel (hydroxypropylcellulose) (HPC)
# [7] = dose: 12.5 mg/kg/injection, schedule: Q01DX009 (ip), vehicle: saline
# [8] = dose: 25.0 mg/kg/injection, schedule: Q01DX009 (ip), vehicle: saline
# [9] = dose: 50.0 mg/kg/injection, schedule: Q01DX009 (ip), vehicle: saline
# [10] = dose: 1.56 mg/kg/injection, schedule: Q01DX009 (ip), vehicle: Klucel (hydroxypropylcellulose) (HPC)
# [11] = dose: 6.25 mg/kg/injection, schedule: Q01DX009 (ip), vehicle: Klucel (hydroxypropylcellulose) (HPC)
# [12] = dose: 50.0 mg/kg/injection, schedule: Q01DX009 (ip), vehicle: saline with Tween-80
# [13] = dose: 100.0 mg/kg/injection, schedule: Q01DX009 (ip), vehicle: saline with Tween-80
# [14] = dose: 100.0 mg/kg/injection, schedule: Q01DX009 (ip), vehicle: saline
# [15] = dose: 200.0 mg/kg/injection, schedule: Q01DX009 (ip), vehicle: saline with Tween-80
# [16] = dose: 200.0 mg/kg/injection, schedule: Q01DX009 (ip), vehicle: saline
# [17] = dose: 400.0 mg/kg/injection, schedule: Q01DX009 (ip), vehicle: saline
# [18] = dose: 0.78 mg/kg/injection, schedule: Q01DX009 (ip), vehicle: Klucel (hydroxypropylcellulose) (HPC)
smiles,measurement,setting,value
CCCCN(C)/N=N/c1[nH]ncc1C(=O)OCC,T/C,"dose: 78.7 mg/kg/injection, schedule: Q01DX009 (ip), vehicle: carboxymethylcellulose (CMC)",109 % of control
same,T/C,"dose: 118.0 mg/kg/injection, schedule: Q01DX009 (ip), vehicle: carboxymethylcellulose (CMC)",118 % of control
same,T/C,"dose: 177.0 mg/kg/injection, schedule: Q01DX009 (ip), vehicle: carboxymethylcellulose (CMC)",118 % of control
same,T/C,"dose: 266.0 mg/kg/injection, schedule: Q01DX009 (ip), vehicle: carboxymethylcellulose (CMC)",109 % of control
O=S(=O)(O)O.[O]=[V],T/C,"dose: 1.56 mg/kg/injection, schedule: Q01DX009 (ip), vehicle: saline with Tween-80",87 % of control
same,T/C,[1],97 % of control
same,T/C,[2],94 % of control
O=C(Oc1ccc(Cl)cc1Cl)c1ccc([N+](=O)[O-])cc1,T/C,[3],87 % of control
same,T/C,[4],86 % of control
CCN(CC)CCCC(C)Nc1cc(/C=C/c2ccc(Cl)cc2)nc2cc(N(C)C)ccc12 (centres undefined),T/C,[5],97 % of control
Cc1ccc(S(=O)(=O)Nc2ccccc2-c2nc3c(Cl)ccc(Cl)c3c(=O)o2)cc1,T/C,[4],105 % of control
same,T/C,[6],92 % of control
CC(Cc1ccccc1)NCCn1cnc2c1c(=O)n(C)c(=O)n2C (centres undefined),T/C,"dose: 3.12 mg/kg/injection, schedule: Q01DX009 (ip), vehicle: saline",112 % of control
same,T/C,"dose: 6.25 mg/kg/injection, schedule: Q01DX009 (ip), vehicle: saline",115 % of control
same,T/C,[7],100 % of control
same,T/C,[8],109 % of control
same,T/C,[9],115 % of control
C=C1C(=O)OC2/C=C(\CO)C(OC(C)=O)CC(O)/C(C)=C/C(OC(=O)C(C)CC)C12 (centres undefined),T/C,[10],108 % of control
same,T/C,"dose: 3.13 mg/kg/injection, schedule: Q01DX009 (ip), vehicle: Klucel (hydroxypropylcellulose) (HPC)",101 % of control
same,T/C,[11],109 % of control
CC(=O)OC1CCC(C(C)(C)C)CC1 (centres undefined),T/C,[12],113 % of control
same,T/C,[13],91 % of control
N=C(N)Sc1ccccn1,T/C,[7],95 % of control
same,T/C,"dose: 12.5 mg/kg/injection, schedule: Q01DX009 (ip), vehicle: suspension in saline",98 % of control
same,T/C,[8],97 % of control
same,T/C,"dose: 25.0 mg/kg/injection, schedule: Q01DX009 (ip), vehicle: suspension in saline",100 % of control
same,T/C,[9],100 % of control
same,T/C,"dose: 50.0 mg/kg/injection, schedule: Q01DX009 (ip), vehicle: suspension in saline",92 % of control
same,T/C,[14],98 % of control
same,T/C,"dose: 100.0 mg/kg/injection, schedule: Q01DX009 (ip), vehicle: suspension in saline",92 % of control
O=[N+]([O-])c1ccc(S(=O)(=O)O)c([N+](=O)[O-])c1.[Ag],T/C,"dose: 12.5 mg/kg/injection, schedule: Q04DX003 (ip), vehicle: DMSO",86 % of control
same,T/C,"dose: 25.0 mg/kg/injection, schedule: Q04DX003 (ip), vehicle: DMSO",86 % of control
CC(NC(=O)CN(C)C(=O)OCc1ccccc1)C(=O)O (centres undefined),T/C,[12],99 % of control
same,T/C,[13],98 % of control
same,T/C,[15],97 % of control
CC(=O)Nc1cccc2c1CCCC2,T/C,"dose: 100.0 mg/kg/injection, schedule: Q04DX003 (ip), vehicle: gum acacia",113 % of control
same,T/C,"dose: 200.0 mg/kg/injection, schedule: Q04DX003 (ip), vehicle: gum acacia",97 % of control
same,T/C,"dose: 400.0 mg/kg/injection, schedule: Q04DX003 (ip), vehicle: gum acacia",95 % of control
CS(=O)(=O)O,T/C,[14],106 % of control
same,T/C,[16],113 % of control
same,T/C,[17],123 % of control
FC1(F)SC2C3CC(C4CCC=C43)C2C1(F)F (centres undefined),T/C,"dose: 0.39 mg/kg/injection, schedule: Q01DX009 (ip), vehicle: Klucel (hydroxypropylcellulose) (HPC)",89 % of control
same,T/C,[18],103 % of control
Cc1c(Cl)cccc1N=Cc1ccccc1O,T/C,"dose: 50.0 mg/kg/injection, schedule: Q01DX009 (ip), vehicle: Klucel (hydroxypropylcellulose) (HPC)",106 % of control
same,T/C,[4],108 % of control
same,T/C,[6],97 % of control
O=[N+]([O-])c1ccc(/C=N\Nc2ccc([N+](=O)[O-])cn2)cc1,T/C,[18],106 % of control
same,T/C,[10],97 % of control
same,T/C,"dose: 3.12 mg/kg/injection, schedule: Q01DX009 (ip), vehicle: Klucel (hydroxypropylcellulose) (HPC)",86 % of control
same,T/C,[11],97 % of control
same,T/C,[5],86 % of control
O=C(O)CP(=O)(O)O,T/C,"dose: 4.0 mg/kg/injection, schedule: Q01DX009 (ip), vehicle: saline",109 % of control
same,T/C,"dose: 8.0 mg/kg/injection, schedule: Q01DX009 (ip), vehicle: saline",104 % of control
same,T/C,"dose: 16.0 mg/kg/injection, schedule: Q01DX009 (ip), vehicle: saline",102 % of control
same,T/C,"dose: 32.0 mg/kg/injection, schedule: Q01DX009 (ip), vehicle: saline",101 % of control
same,T/C,[9],103 % of control
same,T/C,"dose: 64.0 mg/kg/injection, schedule: Q01DX009 (ip), vehicle: saline",102 % of control
same,T/C,[14],120 % of control
same,T/C,[16],154 % of control
same,T/C,[17],194 % of control
same,T/C,"dose: 800.0 mg/kg/injection, schedule: Q01DX009 (ip), vehicle: saline",211 % of control
NC(=S)c1cn(C2OC(CO)C(O)C2O)c2ncnc(N)c12 (centres undefined),T/C,"dose: 2.5 mg/kg/injection, schedule: Q01DX009 (ip), vehicle: saline",89 % of control
same,T/C,"dose: 5.0 mg/kg/injection, schedule: Q01DX009 (ip), vehicle: saline",91 % of control
CCN=C=NCCCN(C)C,T/C,"dose: 10.0 mg/kg/injection, schedule: Q01DX009 (ip), vehicle: saline",92 % of control
same,T/C,"dose: 20.0 mg/kg/injection, schedule: Q01DX009 (ip), vehicle: saline",92 % of control
same,T/C,"dose: 40.0 mg/kg/injection, schedule: Q01DX009 (ip), vehicle: saline",97 % of control
same,T/C,"dose: 80.0 mg/kg/injection, schedule: Q01DX009 (ip), vehicle: saline",94 % of control
CN(C)CCCCO,T/C,[9],96 % of control
same,T/C,[14],96 % of control
same,T/C,[16],89 % of control
C/C=C/CC(C/C=C/C)C1CC[N-]CC1.C/C=C/CC(C/C=C/C)C1CC[N-]CC1.[Cl][Pt+2]([Cl])([Cl])[Cl],T/C,"dose: 1.56 mg/kg/injection, schedule: Q01DX009 (ip), vehicle: other",97 % of control
same,T/C,"dose: 3.13 mg/kg/injection, schedule: Q01DX009 (ip), vehicle: other",97 % of control
same,T/C,"dose: 6.25 mg/kg/injection, schedule: Q01DX009 (ip), vehicle: other",100 % of control
same,T/C,"dose: 12.5 mg/kg/injection, schedule: Q01DX009 (ip), vehicle: other",97 % of control
same,T/C,"dose: 25.0 mg/kg/injection, schedule: Q01DX009 (ip), vehicle: other",96 % of control
CCOC(=O)NNC(N)=S,T/C,[4],100 % of control
same,T/C,[6],93 % of control
same,T/C,"dose: 400.0 mg/kg/injection, schedule: Q01DX009 (ip), vehicle: Klucel (hydroxypropylcellulose) (HPC)",93 % of control
COc1c(C)c2c(c(O)c1C/C=C(\C)CCC(=O)O)C(=O)OC2,T/C,"dose: 6.25 mg/kg/injection, schedule: Q01DX009 (ip), vehicle: distilled water + Tween-80",96 % of control
same,T/C,"dose: 12.5 mg/kg/injection, schedule: Q01DX009 (ip), vehicle: distilled water + Tween-80",95 % of control
same,T/C,"dose: 25.0 mg/kg/injection, schedule: Q01DX009 (ip), vehicle: distilled water + Tween-80",107 % of control
same,T/C,"dose: 50.0 mg/kg/injection, schedule: Q01DX009 (ip), vehicle: distilled water + Tween-80",94 % of control
same,T/C,"dose: 100.0 mg/kg/injection, schedule: Q01DX009 (ip), vehicle: distilled water + Tween-80",104 % of control
same,T/C,"dose: 200.0 mg/kg/injection, schedule: Q01DX009 (ip), vehicle: distilled water + Tween-80",104 % of control
O=C1CCNC(=O)N1OS(=O)(=O)c1ccccc1,T/C,[11],106 % of control
same,T/C,[5],100 % of control
same,T/C,[3],98 % of control
O=[N+]([O-])c1ccc(CSc2ncnc3c2ncn3C2OC(CO)C(O)C2O)cc1 (centres undefined),T/C,[1],90 % of control
same,T/C,[2],90 % of control
same,T/C,"dose: 12.5 mg/kg/injection, schedule: Q01DX009 (ip), vehicle: saline with Tween-80",90 % of control
same,T/C,"dose: 25.0 mg/kg/injection, schedule: Q01DX009 (ip), vehicle: saline with Tween-80",86 % of control
same,T/C,[12],86 % of control
same,T/C,[13],79 % of control
same,T/C,[15],75 % of control
